Results from ChEMBL document CHEMBL1127015, “Centrally acting serotonergic and dopaminergic agents. 1. Synthesis and structure-activity relationships of 2,3,3a,4,5,9b-hexahydro-1H-benz[e]indole derivatives” (J Med Chem, 1993).

Tests used:
D(2) dopamine receptor [1] = target: T1, D(2) dopamine receptor (Homo sapiens, UniProt P14416); test: Intrinsic activity from GTP shift using membranes from CHO cells transfected with mammalian dopamine receptor D2.; type: cell membranes
D(2) dopamine receptor [2] = target: T2, D(2) dopamine receptor (Rattus norvegicus, UniProt P61169); test: Binding affinity against [3H]raclopride-labeled dopamine receptor D2 in rat striatum.; type: tissue-based
T2 sequence (P61169 whole entry): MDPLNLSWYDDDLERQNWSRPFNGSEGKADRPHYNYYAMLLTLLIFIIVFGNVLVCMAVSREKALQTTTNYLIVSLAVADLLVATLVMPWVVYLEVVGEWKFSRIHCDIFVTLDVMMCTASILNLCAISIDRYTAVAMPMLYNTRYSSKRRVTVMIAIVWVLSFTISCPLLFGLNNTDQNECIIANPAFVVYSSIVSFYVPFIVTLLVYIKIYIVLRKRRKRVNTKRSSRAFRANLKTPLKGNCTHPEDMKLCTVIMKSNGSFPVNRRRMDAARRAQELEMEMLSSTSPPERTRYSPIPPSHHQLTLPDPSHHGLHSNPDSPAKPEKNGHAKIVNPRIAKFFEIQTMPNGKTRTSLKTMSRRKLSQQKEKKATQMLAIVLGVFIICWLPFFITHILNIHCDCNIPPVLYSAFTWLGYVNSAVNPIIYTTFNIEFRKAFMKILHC

D(2) dopamine receptor [3] = target: T1, D(2) dopamine receptor; test: Binding affinity against [3H]U-86,170-labeled dopamine receptor D2 in cloned CHO cells; type: cell-based
Mus musculus [4] = test: Antagonism of apomorphine effects for 10-20 minutes in reserpinized mice following 0.4 umol/kg i.p.; type: functional
Mus musculus [5] = test: Antagonism of apomorphine in reserpinized mice when a dose of 3.5 micro mol/kg is administered intraperitoneally; type: functional
Mus musculus [6] = test: Effective dose on hypothermia in mouse when administered subcutaneously; type: functional; conditions: sc
Mus musculus [7] = test: Antagonism of apomorphine for 10-20 minutes in reserpinized mice when a dose of 35 micro mol/kg is administered intraperitoneally; type: functional
Mus musculus [8] = test: Antagonism of apomorphine for 0-10 minutes in reserpinized mice when a dose of 3.5 micro mol/kg is administered intraperitoneally; type: functional
Mus musculus [9] = test: Antagonism of apomorphine in reserpinized mice when a dose of 35 micro mol/kg is administered intraperitoneally; type: functional
Mus musculus [10] = test: Antagonism of apomorphine effects in reserpinized mice following 0.4 umol/kg i.p.; type: functional
Mus musculus [11] = test: Antagonism of apomorphine effects for 0-10 minutes in reserpinized mice following 0.4 umol/kg i.p.; type: functional; parameters: unit not given beside the values
Mus musculus [12] = test: Ability to stimulate dopaminergic systems by effect on locomotor activity in reserpinized mice when a dose of 3.5 micro mol/kg is administered intraperitoneally; type: functional
Mus musculus [13] = test: Antagonism of apomorphine for 10-20 minutes in reserpinized mice when a dose of 3.5 micro mol/kg is administered intraperitoneally; type: functional
Mus musculus [14] = test: Ability to stimulate dopaminergic systems by effect on locomotor activity in reserpinized mice when a dose of 35 micro mol/kg is administered intraperitoneally; type: functional
Mus musculus [15] = test: Maximum decrease in temperature when compound is administered subcutaneously; type: functional
Mus musculus [16] = test: Antagonism of apomorphine for 0-10 minutes in reserpinized mice when a dose of 35 micro mol/kg is administered intraperitoneally; type: functional
Mus musculus [17] = test: Increase in locomotor activity in reserpinized mice following 0.4 umol/kg i.p.; type: functional
Mus musculus [18] = test: Ability to stimulate dopaminergic systems by effect on locomotor activity in reserpinized mice when a dose of 38 micro mol/kg is administered intraperitoneally; type: functional
Mus musculus [19] = test: Antagonism of apomorphine for 0-10 minutes in reserpinized mice when a dose of 3.8 micro mol/kg is administered intraperitoneally; type: functional
Mus musculus [20] = test: Antagonism of apomorphine for 10-20 minutes in reserpinized mice when a dose of 38 micro mol/kg is administered intraperitoneally; type: functional
Mus musculus [21] = test: Antagonism of apomorphine in reserpinized mice when a dose of 3.8 micro mol/kg is administered intraperitoneally; type: functional
Mus musculus [22] = test: Antagonism of apomorphine in reserpinized mice when a dose of 38 micro mol/kg is administered intraperitoneally; type: functional
Mus musculus [23] = test: Antagonism of apomorphine for 0-10 minutes in reserpinized mice when a dose of 38 micro mol/kg is administered intraperitoneally; type: functional
Mus musculus [24] = test: Antagonism of apomorphine for 10-20 minutes in reserpinized mice when a dose of 3.8 micro mol/kg is administered intraperitoneally; type: functional
Mus musculus [25] = test: Ability to stimulate dopaminergic systems by effect on locomotor activity in reserpinized mice when a dose of 3.8 micro mol/kg is administered intraperitoneally; type: functional
D(2) dopamine receptor [26] = target: T2, D(2) dopamine receptor; test: Inhibitory concentration against [3H]raclopride-labeled dopamine receptor D2 in rat striatum; type: tissue-based
Mus musculus [27] = test: Effective dose on hypothermia in mouse when administered through peroral route; type: functional; conditions: po
Mus musculus [28] = test: Maximum decrease in temperature when compound is administered through peroral route; type: functional
Rattus norvegicus [29] = test: Inhibition of firing rates of dopaminergic neurons in the substantia nigra pars compacta by intravenous injection in rats.; type: functional; conditions: Rattus norvegicus, Substantia nigra pars compacta, iv; read-out: ED50
Mus musculus [30] = test: Time of effect in the face-to-face behavioral assay in the mouse when a dose of 36 micro mol/kg is administered perorally; type: functional
Mus musculus [31] = test: Time of effect in the isolation-induced aggression behavioral assay in the mouse when a dose of 0.0 micro mol/kg is administered perorally; type: functional
Mus musculus [32] = test: Antagonism of apomorphine for 10-20 minutes in reserpinized mice when a dose of 3.6 micro mol/kg is administered intraperitoneally; type: functional
Mus musculus [33] = test: Antagonism of apomorphine for 0-10 minutes in reserpinized mice when a dose of 3.6 micro mol/kg is administered intraperitoneally; type: functional
Mus musculus [34] = test: Time of effect in the isolation-induced aggression behavioral assay in the mouse when a dose of 36 micro mol/kg is administered perorally; type: functional
Mus musculus [35] = test: Antagonism of apomorphine for 10-20 minutes in reserpinized mice when a dose of 36 micro mol/kg is administered intraperitoneally; type: functional
Mus musculus [36] = test: Time of effect in the face-to-face behavioral assay in the mouse when a dose of 0.4 micro mol/kg is administered perorally; type: functional
Mus musculus [37] = test: Time of effect in the face-to-face behavioral assay in the mouse when a dose of 3.6 micro mol/kg is administered perorally; type: functional
Mus musculus [38] = test: Antagonism of apomorphine in reserpinized mice when a dose of 36 micro mol/kg is administered intraperitoneally; type: functional
Mus musculus [39] = test: Antagonism of apomorphine in reserpinized mice when a dose of 3.6 micro mol/kg is administered intraperitoneally; type: functional
Mus musculus [40] = test: Antagonism of apomorphine for 0-10 minutes in reserpinized mice when a dose of 36 micro mol/kg is administered intraperitoneally; type: functional
Mus musculus [41] = test: Ability to stimulate dopaminergic systems by effect on locomotor activity in reserpinized mice when a dose of 36 micro mol/kg is administered intraperitoneally; type: functional
Mus musculus [42] = test: Ability to stimulate dopaminergic systems by effect on locomotor activity in reserpinized mice when a dose of 3.6 micro mol/kg is administered intraperitoneally; type: functional
Mus musculus [43] = test: Time of effect in the face-to-face behavioral assay in the mouse when a dose of 0.0 micro mol/kg is administered perorally; type: functional
Rattus norvegicus [44] = test: Inhibition of firing rates of serotonergic neurons in the dorsal raphe nucleus by intravenous injection in rats; type: functional
Rattus norvegicus [45] = test: Inhibition of firing rates of dopaminergic neurons in the substantia nigra pars compacta by intravenous injection in rats; type: functional

T1 sequence (P14416 whole entry): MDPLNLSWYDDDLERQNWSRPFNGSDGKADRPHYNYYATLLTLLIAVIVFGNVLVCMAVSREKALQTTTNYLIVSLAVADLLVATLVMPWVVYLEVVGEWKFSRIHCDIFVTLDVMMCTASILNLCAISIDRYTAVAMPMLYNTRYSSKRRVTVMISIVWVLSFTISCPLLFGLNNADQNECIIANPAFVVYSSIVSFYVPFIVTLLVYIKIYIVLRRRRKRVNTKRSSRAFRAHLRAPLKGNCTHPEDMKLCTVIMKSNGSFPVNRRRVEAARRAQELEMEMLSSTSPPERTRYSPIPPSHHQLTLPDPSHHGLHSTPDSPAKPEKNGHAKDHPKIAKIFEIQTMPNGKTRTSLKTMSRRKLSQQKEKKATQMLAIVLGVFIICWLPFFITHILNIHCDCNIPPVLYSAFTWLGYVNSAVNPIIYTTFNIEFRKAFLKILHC

SMILES | Intrinsic activity (D(2) dopamine receptor [1]) [%] | Ki (D(2) dopamine receptor [2]) [µM] | Ki (D(2) dopamine receptor [3]) [µM] | Locomotor activity (Mus musculus [4]) | ED50 (Mus musculus [6]) [µmol/kg] | Locomotor activity (Mus musculus [10]) | Locomotor activity (Mus musculus [11]) | Max temperature decrease (Mus musculus [15]) | Locomotor activity (Mus musculus [17]) | Locomotor activity (Mus musculus [18]) | Locomotor activity (Mus musculus [19]) | Locomotor activity (Mus musculus [20]) | Locomotor activity (Mus musculus [21]) | Locomotor activity (Mus musculus [22]) | Locomotor activity (Mus musculus [23]) | Locomotor activity (Mus musculus [24]) | Locomotor activity (Mus musculus [25]) | further results
CCCN1CC[C@H]2c3cccc(O)c3CC[C@H]21 (racemic) | 1 | > 1 | 0.218 | – | – | – | – | – | – | – | – | – | – | – | – | – | – | –
CCCN1CC[C@@H]2c3cccc(OC)c3CC[C@H]21 (racemic) | 0 | – | – | 123 | 34 | 188 | 87 | 3.9 | 1 | – | – | – | – | – | – | – | – | Locomotor activity (Mus musculus [5]): 122; Locomotor activity (Mus musculus [7]): 34; Locomotor activity (Mus musculus [8]): 64; Locomotor activity (Mus musculus [9]): 53; Locomotor activity (Mus musculus [12]): 6; Locomotor activity (Mus musculus [13]): 98; Locomotor activity (Mus musculus [14]): 27; Locomotor activity (Mus musculus [16]): 10
C=CCN1CC[C@@H]2c3c(O)cccc3CC[C@H]21 (racemic) | 13 | – | 0.025 | 66 | – | 73 | 46 | – | 26 | 1 | 71 | 33 | 5 | 9 | 49 | 53 | 5 | –
C=CCN1CC[C@H]2c3cccc(O)c3CC[C@H]21 (racemic) | 29 | 0.198 | 0.075 | 111 | – | 130 | 101 | – | 0 | 12 | 88 | 52 | 111 | 21 | 32 | 111 | 8 | –
CCCN1CCC2c3c(O)cccc3CCC21 (racemic) | – | – | – | – | 2.1 | – | – | 8.8 | – | – | – | – | – | – | – | – | – | IC50 (D(2) dopamine receptor [26]): > 1 µM; ED50 (Mus musculus [27]): 154 µmol/kg; Max temperature decrease (Mus musculus [28]): 2.6
C=CCN1CCC2c3cccc(O)c3CC[C@@H]21 (single isomer, unassigned; (+)) | 50 | 0.259 | 0.059 | 76 | – | 79 | 50 | – | 11 | 17 | 54 | 37 | 62 | 62 | 20 | 90 | 42 | ED50 (Rattus norvegicus [29]): 2.82 µmol/kg
C=CCN1CCC2c3c(cccc3OC)CC[C@@H]21 (single isomer, unassigned; (+)) | 17 | – | – | 92 | 62 | 103 | 83 | 3.9 | 8 | – | – | – | – | – | – | – | – | Time (Mus musculus [30]): 1 s; Time (Mus musculus [31]): 27 s; Locomotor activity (Mus musculus [32]): 77; Locomotor activity (Mus musculus [33]): 73; Time (Mus musculus [34]): 21 s; Locomotor activity (Mus musculus [35]): 67; Time (Mus musculus [36]): 0.9 s; Time (Mus musculus [37]): 0.6 s; Locomotor activity (Mus musculus [38]): 115; Locomotor activity (Mus musculus [39]): 114; Locomotor activity (Mus musculus [40]): 54; Locomotor activity (Mus musculus [41]): 18; Locomotor activity (Mus musculus [42]): 12; Time (Mus musculus [43]): 0.8 s
CCCN(CCC)C1CCc2cccc(O)c2C1 (centres undefined) [8-OH-DPAT] | – | > 1 | – | – | – | – | – | – | – | – | – | – | – | – | – | – | – | ED50 (Rattus norvegicus [44]): 0.005 µmol/kg; ED50 (Rattus norvegicus [45]): 2.25 µmol/kg
CN1CCc2cccc3c2[C@H]1Cc1ccc(O)c(O)c1-3 [APOMORPHINE] | – | – | – | – | – | – | – | – | – | – | – | – | – | – | – | – | – | ED50 (Rattus norvegicus [29]): 0.03 µmol/kg
CN(C)CCCN1c2ccccc2Sc2ccc(Cl)cc21 [CHLORPROMAZINE] | 5 | – | – | – | – | – | – | – | – | – | – | – | – | – | – | – | – | –
